Results as given in patent US20240376143A1, “SELECTION INHIBITION OF DNA POLYMERASE BETA BY A COVALENT INHIBITOR” (The Johns Hopkins University, priority 2021, published 2024).
One block for each compound: values may come before it.

Experiments:
DNA polymerase β (Pol β) = DNA polymerase β (Pol β) (Homo sapiens, UniProt P06746); conditions: 30 min preincubation; Paul et al.; cited from earlier work
Pol η = target: T1, Pol η (Homo sapiens, UniProt Q9Y253); assay: primer extension assay (Pol η); type: biochemical; conditions: 10 μM
T1 construct: purchased EnzyMax
T1 sequence (Q9Y253 1-713): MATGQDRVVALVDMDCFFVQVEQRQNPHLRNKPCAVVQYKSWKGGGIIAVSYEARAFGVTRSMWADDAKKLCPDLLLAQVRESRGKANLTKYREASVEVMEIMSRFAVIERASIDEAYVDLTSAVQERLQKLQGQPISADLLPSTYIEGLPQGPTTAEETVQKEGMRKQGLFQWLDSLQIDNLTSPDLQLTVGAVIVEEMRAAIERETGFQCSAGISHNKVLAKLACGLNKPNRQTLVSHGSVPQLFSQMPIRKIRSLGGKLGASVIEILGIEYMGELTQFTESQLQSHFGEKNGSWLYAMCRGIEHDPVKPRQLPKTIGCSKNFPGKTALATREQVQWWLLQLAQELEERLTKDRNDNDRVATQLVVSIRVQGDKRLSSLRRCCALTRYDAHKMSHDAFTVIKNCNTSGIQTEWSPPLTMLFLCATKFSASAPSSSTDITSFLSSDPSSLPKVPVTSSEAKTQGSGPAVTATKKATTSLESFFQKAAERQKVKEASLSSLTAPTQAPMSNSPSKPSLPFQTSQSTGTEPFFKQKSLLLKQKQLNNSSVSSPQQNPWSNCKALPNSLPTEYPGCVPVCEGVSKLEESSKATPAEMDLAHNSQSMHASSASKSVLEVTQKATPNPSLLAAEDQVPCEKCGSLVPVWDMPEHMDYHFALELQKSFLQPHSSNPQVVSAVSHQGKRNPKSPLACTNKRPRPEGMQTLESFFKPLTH
Description: (§1) A 10× working solution of 14 (5 or 100 μM) was prepared in 1:1 MeCN/H2O. A 10× preincubation mixture was prepared by mixing a 50× working solution of polymerase (250 nM) with an aliquot of the inhibitor (5 or 100 μM, 10×) in 1× reaction buffer (50 mM Tris·HCl, 50 mM NaCl, 5 mM MgCl2, 5 mM DTT, 0.1 mg/mL BSA, 10% glycerol, pH 7.5) (see Table 19 for volumes). The concentration of the preincubation mixture was 50 nM polymerase (10×) and 0, 0.5 or 10 μM 14 (1×).
(§2) The samples containing 50 nM polymerase and 14 (0, 0.5, or 10 μM) were preincubated at 25° C. for 20 min. After preincubation, an aliquot (2 μL, pol η or 3 μL, pol λ) was diluted with 10× ternary complex (pol η: 2 μL, 500 nM D4 or pol λ: 3 μL, 100 nM TC5), 10× dNTPs (5 mM; 2 μL, pol η or 3 μL, pol λ), and 1× reaction buffer (14 μL., pol η or 21 μL, pol λ) (see Table 20 for volumes). While the samples were incubated at 37° C., aliquots (pol η: 0, 2, 5, 10, 15, 20 min, 3 μL or pol λ: 0, 5, 15, 20, 30 min, 5 μL) were removed and quenched by the addition of 95% formamide, 20 mM EDTA loading buffer (10 μL). Aliquots were heated at 95° C. for 5 min, spun down, and loaded onto a 20% denaturing PAGE and run for 4 h at 55 watts. The gel was exposed in a radiography cassette, which was scanned using a Phosphorimager.

Pol λ = target: T2, Pol λ (Homo sapiens, UniProt Q9UGP5); assay: primer extension assay (Pol λ); type: biochemical; conditions: 10 μM
T2 sequence (Q9UGP5 1-575): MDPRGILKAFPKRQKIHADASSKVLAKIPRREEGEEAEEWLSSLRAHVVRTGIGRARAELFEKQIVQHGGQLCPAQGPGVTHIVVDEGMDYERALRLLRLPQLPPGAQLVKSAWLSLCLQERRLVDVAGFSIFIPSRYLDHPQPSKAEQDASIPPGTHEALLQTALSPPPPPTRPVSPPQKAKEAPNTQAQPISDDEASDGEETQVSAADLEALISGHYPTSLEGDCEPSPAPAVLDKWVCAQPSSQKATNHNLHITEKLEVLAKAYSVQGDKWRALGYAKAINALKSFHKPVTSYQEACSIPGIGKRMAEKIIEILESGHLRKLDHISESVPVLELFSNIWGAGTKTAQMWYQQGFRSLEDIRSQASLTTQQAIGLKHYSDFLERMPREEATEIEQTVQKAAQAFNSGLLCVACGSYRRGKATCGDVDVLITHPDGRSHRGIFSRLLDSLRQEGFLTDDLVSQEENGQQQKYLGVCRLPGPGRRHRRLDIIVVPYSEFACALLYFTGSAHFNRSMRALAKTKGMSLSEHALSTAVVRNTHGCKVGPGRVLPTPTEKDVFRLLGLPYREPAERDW
Description: as §1, §2

[1] = tested on: MEFs lacking Pol β (Pol β−/−); assay: cell viability assay for MEFs lacking Pol β; type: cell-based, mouse; conditions: MMS alone
UWB1.289 (BRCA1−/−) = assay: clonogenic assay, BRCA1 deficient ovarian cancer cells; type: cell-based; conditions: 1 μM
Description: (§3) The medium was removed, and the cells were resuspended in fresh media (10 mL). […] The excess dye was removed by washing with water twice.
UWB1.289 cells (6×106) were seeded with RPMI 1640/MEGM medium (10 mL) into a 100 mm plate prior to transfection so cells would be adherent and ˜80% confluent on the first day of transfection, which was determined by manual inspection. Transfection was completed as follows: • 1. Lipofectamine RNAiMAX (60 μL) was diluted in Opti-MEM reduced serum medium to 1 mL. • 2. In a separate tube, siRNA (either siNT or siPol β, 10 μM, 60 μL, […]) was diluted in Opti-MEM (500 μL). • 3. The Lipofectamine solution was split (2×500 μL aliquots) and mixed with either siNT or siPol β solution to form the lipid-RNA complex at 25° C. for 5 min. • 4. The RPMI 1640/MEGM medium was removed and replaced with Opti-MEM medium (9 mL). After 5 min incubation, the lipid-RNA solution (1 mL) was added to the cells. Cells were incubated at 37° C. in a 5% CO2 humidified incubator. The following day, steps 1-3 were repeated. and the resulting 2×500 μL solutions were added to the existing cells that had been incubating at 37° C., 5% CO2 for 24 h. Transfected cells were allowed to incubate for an additional 48 h at 37° C., 5% CO2 after the second addition of siRNA. […]

UWB1.289+BRCA1 = assay: clonogenic assay, BRCA1 complemented ovarian cancer cells; type: cell-based
MCF-7 = assay: clonogenic assay, BRCA1 proficient breast cancer cells; type: cell-based; conditions: 1 h
Description: as §3

MDA-MB-436 = assay: clonogenic assay, BRCA1 deficient breast cancer cells; type: cell-based; conditions: 1 h
Description: as §3

Structure (SMILES): COc1cc(Cl)c(C=NOC2CC(n3cc(CNC(=O)c4cc5cccc(O)c5cc4O)c(=O)[nH]c3=O)OC2COP(=O)(O)OCC2CC(O)OC2O)c(Cl)c1O (stereo not drawn) [Compound 2]
IC50 (DNA polymerase β (Pol β)): 400 nM

Pol η activity retained (Pol η): approximately 50% | Pol λ activity relative to untreated enzyme (Pol λ): more than 25%
Structure (SMILES): O=C(NC1CC(n2cc(CNC(=O)c3cc4cc(Br)ccc4c(Br)c3O)c(=O)[nH]c2=O)OC1COP(=O)(O)OCC1CC(O)OC1O)c1cc(-c2ccc(Cl)cc2)oc1C(F)(F)F (stereo not drawn) [Compound 14]

Structure (SMILES): COS(C)(=O)=O [MMS, methyl methanesulfonate]
toxicity compared with WT MEFs [1]: considerably more toxic

Structure (SMILES): O=C(c1cc(Cc2n[nH]c(=O)c3ccccc23)ccc1F)N1CCN(C(=O)C2CC2)CC1 [Olaparib]
cytotoxicity as a function of treatment time (UWB1.289 (BRCA1−/−)): proportional to incubation time | toxicity (UWB1.289+BRCA1; 1 h treatment): modestly toxic | cytotoxicity upon prolonged treatment, compared with pro-1 (UWB1.289+BRCA1; time course): more cytotoxic | toxicity compared with pro-1 (MCF-7): more toxic | cell killing compared with pro-1 (MDA-MB-436): more effective at killing BRCA1−/− cells at a lower concentration
